Measured values reported in patent US5631293A, “Preparation of amino acid-substituted benzoylguanidines as diagnostic agents” (priority 1994, dated 1997).
Counter-ions that a name gives are not always drawn. Values belong to the compound of their own block, whether it stands above or below them.

Experiments:
[1] = target: T1, Na+/H^+ exchanger of rabbit erythrocytes (Oryctolagus cuniculus, UniProt P23791); test: Inhibition of the Na+/H+ exchanger of rabbit erythrocytes (amiloride-sensitive Na+ influx, flame photometry); assay type: cell-based, rabbit (White New Zealand); settings: cholesterol diet 2% six weeks, pH 7.4, 37° C
T1 construct: determine the Na^+ influx into the erythrocytes via Na^+ /H^+ exchange by flame photometry; endogenous in cells; host or cells: erythrocytes in blood from the ear arteries of cholesterol-fed White New Zealand rabbits (Ivanovas)
T1 sequence (P23791 whole entry): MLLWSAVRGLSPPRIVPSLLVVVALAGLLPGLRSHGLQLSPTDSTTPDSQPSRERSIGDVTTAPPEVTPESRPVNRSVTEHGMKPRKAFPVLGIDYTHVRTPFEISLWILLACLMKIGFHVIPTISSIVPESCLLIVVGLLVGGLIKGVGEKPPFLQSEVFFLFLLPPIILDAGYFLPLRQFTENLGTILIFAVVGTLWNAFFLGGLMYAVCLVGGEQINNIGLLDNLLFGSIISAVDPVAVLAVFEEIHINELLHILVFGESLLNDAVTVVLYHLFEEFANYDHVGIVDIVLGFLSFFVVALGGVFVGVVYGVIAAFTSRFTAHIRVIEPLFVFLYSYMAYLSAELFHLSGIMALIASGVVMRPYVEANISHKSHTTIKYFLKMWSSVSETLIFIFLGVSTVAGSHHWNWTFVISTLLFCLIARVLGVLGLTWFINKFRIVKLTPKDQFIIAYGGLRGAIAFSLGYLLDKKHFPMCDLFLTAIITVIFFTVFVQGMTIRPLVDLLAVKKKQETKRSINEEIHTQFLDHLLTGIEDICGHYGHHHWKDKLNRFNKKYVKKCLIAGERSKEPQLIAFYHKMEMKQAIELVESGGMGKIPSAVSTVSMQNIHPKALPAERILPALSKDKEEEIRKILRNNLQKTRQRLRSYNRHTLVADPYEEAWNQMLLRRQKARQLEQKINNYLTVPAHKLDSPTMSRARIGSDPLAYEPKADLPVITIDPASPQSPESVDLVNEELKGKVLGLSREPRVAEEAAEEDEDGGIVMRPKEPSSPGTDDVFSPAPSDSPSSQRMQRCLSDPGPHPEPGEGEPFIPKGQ
Text: Inhibition of the Na+/H^+ exchanger of rabbit erythrocytes
White New Zealand rabbits (Ivanovas) were given a standard diet with 2% of cholesterol for six weeks in order to activate the Na^+ /H^+ exchange and in this way to be able to determine the Na^+ influx into the erythrocytes via Na^+ /H^+ exchange by flame photometry. The blood was removed from the ear arteries and rendered noncoagulable by 25 IU of potassium-heparin. A portion of each sample was used for duplicate determination of the hematocrit by centrifugation. Aliquots of in each case 100 μl were used for measurement of the starting Na^+ content of the erythrocytes.
To determine the amiloride-sensitive sodium influx, 100 μl of each blood sample were incubated in 5 ml portions each of a hyperosmolar salt/sucrose medium (mmol/l: 140 NaCl, 3 KCl, 150 sucrose, 0.1 ouabain, 20 tris-hydroxymethylaminomethane) at pH 7.4 and 37° C. The erythrocytes were then washed three times with ice-cold MgCl2 /ouabain solution (mmol/l: 112 MgCl2, 0.1 ouabain) and hemolyzed in 2.0 ml of distilled water. The intracellular sodium content was determined by flame photometry.
The Na^+ net influx was calculated from the difference between the starting sodium values and the sodium content of the erythrocytes after incubation. The sodium influx which can be inhibited by amiloride resulted from the difference between the sodium content of the erythrocytes after incubation with and without 3×10^-4 mol/l of amiloride. This procedure was also followed with compounds according to the invention.

[2] = test system: disturbances in cardiac rhythm; settings: Circulation 79, 1257-63 (1989); cited from earlier work
[3] = test system: artificially induced ventricular fibrillation on rat hearts; settings: isolated rat hearts, cited from earlier work

SMILES: CC(C)(C)OC(=O)N[C@@H](Cc1ccc(Oc2ccc(C(=O)N=C(N)N)cc2S(C)(=O)=O)cc1)C(=O)O [Example 1, N-tert-Butoxycarbonyl-4-[(4-guanidinocarbonyl-2-methylsulfonyl)phenoxy]-phenylalanine]
IC50 [1]: 430 nM

IC50 [1]: 1000 nM
SMILES: CS(=O)(=O)c1cc(C(=O)N=C(N)N)ccc1Oc1ccc(C[C@H](N)C(=O)O)cc1 [Example 2, 4-[(4-Guanidinocarbonyl-2-methylsulfonyl)phenoxy]phenylalanine]

IC50 [1]: 26 nM
SMILES: NC(N)=NC(=O)c1ccc(Oc2ccc(CC(N)C(=O)O)cc2)c(C(F)(F)F)c1 (stereo not shown) [Example 4, 4-[(4-Guanidinocarbonyl-2-trifluoromethyl)phenoxy]phenylalanine, dihydrochloride]

SMILES: NC(N)=NC(=O)c1nc(Cl)c(N)nc1N [amiloride]
antiarrhythmic effect [2]: only weak
side-effects accompanying the antiarrhythmic effect [2]: antihypertensive and saluretic action
suppression of artificially induced ventricular fibrillation [3]: suppressed completely

SMILES: CCN(c1nc(N)c(C(=O)N=C(N)N)nc1Cl)C(C)C [ethylisopropylamiloride]
potency against ventricular fibrillation compared with amiloride ([3]; relative to amiloride): even more potent than amiloride
